Measurements reported in US20240415753A1, “DEODORANT COMPOSITIONS COMPRISING CARBOXYLIC ACIDS” (The Procter & Gamble Company, priority 2023, published 2024).

Experiments:
[1] = Surface tension of carboxylic acid at 2 wt % in water (Wilhelmy plate); assay type: physicochemical; conditions: 2 wt % solution of the carboxylic acid in water; average of 3 samples
Protocol: Surface tension was measured using surface tension measurement, described herein. […] Surface tension of a sample is calculated as the average of the last 5 measured values. […] The average of the last 5 values is used to calculate surface tension of a sample. Surface Tension is measured by ASTM […]-20 Method C-Surface Tension by […] plate. For accurate measurement, the Surface Tension measurement should be allowed to equilibrate over the course of at least 1 minute, or at least 2 minutes, or longer depending on the sample. Properly equilibrated surface tension measurement is evaluated by not seeing a change in the surface tension measurement across multiple data points at the end of the measurement time period. The sample is run for a longer period of time if the surface tension measurement is continuing to change across multiple data points at the end of the measurement time period. […] The average of the last 5 values collected is used to calculate surface tension of a sample.

[2] = system: mock community of five underarm species (3 Staphylococcus and 2 Corynebacterium); test: MIC of various carboxylic acids (Optical Density MIC 95); assay type: cell-based; conditions: pH 5, Tryptic Soy Broth, initial concentration 1000 ppm, ~24 hours at 37° C., OD 600 nm
Description: The following MIC (Minimum Inhibitory Concentration) was done on various carboxylic acids. The MIC is the lowest concentration of active compound at which no growth of the microorganism is observed macroscopically. […] Tryptic Soy Broth is used in the measurements below as a standard diluent for testing MIC. Initial concentration is the highest concentration tested in this experiment. […] The results shown in Table 7 below indicate that carboxylic acids have the ability to inhibit bacteria growth. […] The MIC or minimum inhibitory concentration test determines antimicrobial activity of a material against a specific bacteria. The most commonly employed methods are the tube dilution method and agar dilution method. Test products that are not clear or precipitate the growth media are tested by agar dilution method which is similar to the tube dilution method except dilutions are plated on agar. The tube dilution test is the standard method for determining levels of microbial resistance to an antimicrobial agent. Serial dilutions of the test agent are made in a liquid microbial growth medium which is inoculated with a standardized number of organisms and incubated for a prescribed time. The lowest concentration (highest dilution) of test agent preventing appearance of turbidity (growth) is considered to be the minimal/minimum inhibitory concentration (MIC). At this dilution the test agent is bacteriostatic. […] This measurement is referred to as optical density.

[3] = Surface tension of solvents at 50 wt % in water (Wilhelmy plate); assay type: physicochemical; conditions: solvent at 50 wt % in water; average of 3 samples
Description: In addition, carboxylic acids may be used in deodorant compositions that are desired to be clear. For the composition to appear clear, the refractive index of the polar and nonpolar phases may not vary too much. For example, for a clear appearance of a polar in nonpolar emulsion, a significant amount of material with high refractive index, water soluble solvents or emollients (for example glycols, polyethers, diols, glycerin, or mixtures thereof), can be added to the polar phase to match the refractive index of water (1.333) to silicone (1.40). […] Surface tension is measured for mixtures of solvents at 50 wt % in water. Surface tension was measured using the surface tension measurement, as described in the Test Method section herein. Measurement time period was 1 minute with 30 values measured over the measurement time period. Surface tension of a sample is calculated as the average of the last 5 measured values. Each reported value is an average of 3 samples measured.
Surface Tension is measured by ASTM D1331-20 Method C-Surface Tension by Willhelmy plate. […] Properly equilibrated surface tension measurement is evaluated by not seeing a change in the surface tension measurement across multiple data points at the end of the measurement time period. […] A minimum of 30 measured values are collected during the measurement time period. […]

SMILES	Surface Tension when measured at 2 wt % in Water [1] [mN/m]	Surface Tension when measured at 50 wt % in Water [3] [mN/m]	MIC [2] [µg/mL]
O=C(O)CC(O)(CC(=O)O)C(=O)O [Citric Acid]	71.3		
O=C(O)/C=C/C(=O)O [Fumaric Acid]			250
O=C(O)/C=C\C(=O)O [Maleic Acid]			1000
O=C(O)CC(O)C(=O)O (centres unmarked) [Malic Acid]	71.8		500
O=C(O)C(O)c1ccccc1 (centres unmarked) [Mandelic Acid]	63.7		1000
O=C(O)c1ccccc1O [Salicylic Acid]			125
O=C(O)CCC(=O)O [Succinic Acid]	69.8		1000
O=C(O)C(O)C(O)C(=O)O (centres unmarked) [Tartaric Acid]			250

The next lines start with results.

Surface Tension when measured at 2 wt % in Water [1] [mN/m]	Surface Tension when measured at 50 wt % in Water [3] [mN/m]	SMILES	MIC [2] [µg/mL]
72.4		O=C1O[C@H]([C@@H](O)CO)C(O)=C1O [Ascorbic Acid]	
	68.6	OCC(O)CO [Glycerin]	
71.1		O=C(O)CO [Glycolic Acid]	
63.7		CC(O)C(=O)O (centres unmarked) [Lactic Acid]	1000
	44.6	CC(O)CO (centres unmarked) [Propylene Glycol (PG), Propylene Glycol]	
